{"source": "patent US7655701B2", "about": "“Cycloalkylidene-(ortho substituted phenyl)-acetonitriles and their use as odorants” (Givaudan SA, priority 2005, dated 2010)", "data": [{"test": "Determination of GC-odor threshold values", "conditions": "gas chromatograph with sniff port, panel of trained evaluators; absolute amount delivered at the sniff port", "method": "According to standard procedures known to the person skilled in the art, threshold values for volatile perfumery compounds are determined on a gas chromatograph equipped with a sniff port by a panel of trained evaluators. The lowest concentration smelled by each panellist is recorded as the individual threshold value expressed in ng (absolute amount of compound delivered at the sniff port).\nUnder identical conditions the odour threshold value for the individual compounds was measured.", "units": {"odour threshold value geometric mean": "ng"}, "values": [{"smiles": "Cc1ccccc1C(C#N)=C1CCCCC1", "note": "[Example 1, Cyclohexylidene-o-tolyl-acetonitrile]", "odour threshold value geometric mean": 0.12}, {"smiles": "Cc1ccc(C(C#N)=C2CCCCC2)cc1", "note": "[Example 2, Cyclohexylidene-p-tolyl-acetonitrile]", "odour threshold value geometric mean": 2.91}, {"smiles": "N#CC(=C1CCCCC1)c1ccccc1", "note": "[Peonile ®, cyclohexylidene-phenyl-acetonitrile]", "odour threshold value geometric mean": 0.53}, {"smiles": "Cc1cccc(C(C#N)=C2CCCCC2)c1", "note": "[Example 4, Cyclohexylidene-m-tolyl-acetonitrile]", "odour threshold value geometric mean": 1.08}]}]}
